US10988474B2, “Compounds acting at multiple prostaglandin receptors giving a general anti-inflammatory response” (ALLERGAN, INC., priority 2011, dated 2021)

What was measured:
[1] = molecular target: T1, human prostanoid EP3 receptor (Homo sapiens, UniProt P43115); experiment: FLIPR Ca2+ signaling PG antagonist assay, EP3 stable cell line; format: cell-based; settings: HEK-293 EBNA cells, human recombinant EP3 with chimeric Gqi; standard agonist PGE2
T1 construct: expressed in transfected cells
T1 sequence (P43115 1-390): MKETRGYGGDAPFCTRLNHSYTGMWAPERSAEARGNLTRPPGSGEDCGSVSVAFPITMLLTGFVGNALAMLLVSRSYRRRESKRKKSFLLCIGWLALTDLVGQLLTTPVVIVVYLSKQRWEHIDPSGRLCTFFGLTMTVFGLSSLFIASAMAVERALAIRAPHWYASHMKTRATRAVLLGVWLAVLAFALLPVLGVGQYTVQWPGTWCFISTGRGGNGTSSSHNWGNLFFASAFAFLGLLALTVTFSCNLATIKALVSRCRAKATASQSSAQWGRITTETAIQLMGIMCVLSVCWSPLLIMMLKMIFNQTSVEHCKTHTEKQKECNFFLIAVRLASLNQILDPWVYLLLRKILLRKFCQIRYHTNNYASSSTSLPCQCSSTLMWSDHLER
Experimental: (§1) The above compounds were tested for PG antagonist activity as follows using human recombinant prostanoid receptor (DP1, EP1-4, FP, IP and TP) stable cell lines: In order to measure the response of Gs and Gi coupled prostanoid receptors as a Ca^2+ signal, chimeric G protein cDNAs were used. Stable cell lines over-expressing human prostanoid DP1, EP1-4, FP, IP, and TP receptors were established as follows:
(§2) Briefly, human prostanoid DP1, EP2, and EP4 receptor cDNAs were co-transfected with chimeric Gqs cDNA containing a haemagglutanin (HA) epitope; human prostanoid EP3 receptors were co-transfected with chimeric Gqi-HA; human EP1, FP, IP, and TP receptor cDNAs were expressed with no exogenous G-proteins. Gqs and Gqi chimeric cDNAs (Molecular Devices, Sunnyvale, Calif., U.S.A.), as well as cDNAs of prostanoid receptors, were cloned into a pCEP4 vector with a hygromycin B selection marker. Transfection into HEK-293 EBNA (Epstein-Barr virus nuclear antigen) cells was achieved by the FuGENE 6 transfection Reagent (Roche Applied Science, Indianapolis, Ind., USA). Stable transfectants were selected according to hygromycin resistance. Because Gqs and Gqi contained an HA epitope, G-protein expression was detected by Western blotting analysis using anti-mouse HA monoclonal antibody and horseradish peroxidase (HRP)-conjugated secondary antibody, while functional expression of prostanoid receptors was detected by FLIPR screening (Matias et al., 2004). These stable cell lines were validated using previously published antagonists at 10 μM against serial dilutions of standard agonists by FLIPR functional assays for Ca^2+ Signaling (as described below).
(§3) Ca^2+ signaling studies were performed using a FLIPR TETRA system (Molecular Devices, Sunnyvale, Calif., USA) in the 384-format. This is a high-throughput instrument for cell-based assays to monitor Ca^2+ signaling associated with GPCRs and ion channels. Cells were seeded at a density of 5×10^4 cells/well in BioCoat poly-D-lysine coated, black wall, clear bottom 384-well plates (BD Biosciences, Franklin lakes, NJ, USA) and allowed to attach overnight in an incubator at 37° C. The cells were then washed twice with HBSS-HEPES buffer (Hanks' balanced salt solution without bicarbonate and phenol red, 20 mM HEPES, pH 7.4) using an ELx405 Select CW Microplate Washer (BioTek, Winooski, Vt., USA). After 60 min of dye-loading in the dark using the Ca^2+-sensitive dye Fluo-4AM (Invitrogen, Carlsbad, Calif., USA), at a final concentration of 2×10^−6M, the plates were washed 4 times with HBSS-HEPES buffer to remove excess dye and leaving 50 μl of buffer in each well. The plates were then placed in the FLIPR TETRA instrument and allowed to equilibrate at 37° C. Compounds were added in a 25 μl volume to each well to give final concentrations of 0.1 μM, 0.3 μM, 1 μM, 3 μM, 10 μM, and 30 μM; or 0.067 μM, 0.1 μM, 0.2 μM, 0.3 μM, 0.67 μM, and 1 μM for cells over-expressing TP receptors. After 4.5 minutes, a 7-point serial dilution of the standard agonist for the corresponding receptor, in a 25 μl volume was injected at the final concentrations from 10^−11M to 10^−5M in 10-fold serial dilution increments for cells expressing human recombinant DP1, EP1, EP2, EP3, EP4, FP, and IP receptors. The dose range for the standard agonist for human recombinant TP receptors was from 10^−12M to 10^−6M. HBSS-HEPES buffer was used as the negative control for the standard agonists. Cells were excited with LED (light emitting diode) excitation at 470-495 nm and emission was measured through an emission filter at 515-575 nm. Assay plates were read for 3.5 minutes using the FLIPR^TETRA. The peak increase in fluorescence intensity was recorded for each well. On each plate, negative controls, dose response of positive controls, and co-treatments of antagonist-agonist for each dose were in triplicates. Standard agonists were as follows: DP=BW 245C, EP1-EP4=PGE2, FP=17-phenyl-PGF2α, IP=Cicaprost, and TP=U-46619. […]

[2] = molecular target: T2, human prostanoid TP receptor (Homo sapiens, UniProt P21731); experiment: FLIPR Ca2+ signaling PG antagonist assay, TP stable cell line; format: cell-based; settings: HEK-293 EBNA cells, human recombinant TP, no exogenous G-protein; standard agonist U-46619
T2 construct: expressed in transfected cells
T2 sequence (P21731 1-343): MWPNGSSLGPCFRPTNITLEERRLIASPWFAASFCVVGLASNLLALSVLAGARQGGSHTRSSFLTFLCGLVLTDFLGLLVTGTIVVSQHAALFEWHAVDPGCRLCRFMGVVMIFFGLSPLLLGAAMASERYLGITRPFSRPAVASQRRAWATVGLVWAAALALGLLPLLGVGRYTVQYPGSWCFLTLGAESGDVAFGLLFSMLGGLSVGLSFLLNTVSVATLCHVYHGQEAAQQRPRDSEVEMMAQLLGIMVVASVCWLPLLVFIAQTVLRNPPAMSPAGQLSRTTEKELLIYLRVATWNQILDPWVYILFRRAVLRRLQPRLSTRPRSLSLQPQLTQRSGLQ
Experimental: as §1, §2, §3

Row | SMILES | Kb [1] | Kb [2]
1 | CCC(CC)COc1ccc(C(F)(F)F)cc1Cn1nc(C)c2cc(C(=O)O)ccc21 [Example 26, 1-[2-(2-Ethyl-Butoxy)-5-Trifluoromethyl-Benzyl]-3-Methyl-1H-Indazole-5-Carboxylic Acid] | 3300 nM | 18 nM
2 | O=C(O)c1cccc2c1cnn2Cc1cc(Cl)ccc1OCC1CC1 [Example 34, 1-(5-Chloro-2-Cyclopropylmethoxy-Benzyl)-1H-Indazole-4-Carboxylic Acid] | ≥ 10000 nM | 100 nM
3 | CCC(CC)COc1ccc(OC(F)(F)F)cc1Cn1cc(C)c2cc(C(=O)O)ccc21 [Example 77, 1-[2-(2-Ethyl-Butoxy)-5-Trifluoromethoxy-Benzyl]-3-Methyl-1H-Indole-5-Carboxylic Acid] | ≥ 10000 nM | 1100 nM
4 | CC(C)COc1ccc(S(C)(=O)=O)cc1Cn1ncc2cc(C(=O)O)ccc21 [Example 48, 1-(2-Isobutoxy-5-Methanesulfonyl-Benzyl)-1H-Indazole-5-Carboxylic Acid] | ≥ 10000 nM | 500 nM
5 | CC(C)COc1ccc(O)cc1Cn1ncc2cc(C(=O)O)ccc21 [Example 54] | ≥ 10000 nM | 640 nM
6 | CCC(CC)COc1ccc(Cl)cc1Cn1nc(C)c2cc(C(=O)O)cnc21 [Example 60, 1-[5-Chloro-2-(2-Ethyl-Butoxy)-Benzyl]-3-Methyl-1H-Pyrazolo[3,4-B]Pyridine-5-Carboxylic Acid] | 5100 nM | 410 nM
7 | CCC(CC)COc1ccc(Cl)cc1Cn1ncc2ccc(C(=O)O)cc21 [Example 46, 1-[5-Chloro-2-(2-Ethyl-Butoxy)-Benzyl]-1H-Indazole-6-Carboxylic Acid] | ≥ 10000 nM | 150 nM
8 | Cc1nn(Cc2cc(OC(F)(F)F)ccc2OCC(C)C)c2ccc(C(=O)O)cc12 [Example 22, 1-(2-Isobutoxy-5-Trifluoromethoxy-Benzyl)-3-Methyl-1H-Indazole-5-Carboxylic Acid] | ≥ 10000 nM | 5 nM
9 | CC(C)COc1ccc(Br)cc1Cn1cc2cc(C(=O)O)ccc2n1 [Example 17, 2-(5-Bromo-2-Isobutoxy-Benzyl)-2H-Indazole-5-Carboxylic Acid] | ≥ 10000 nM | 3300 nM
10 | O=C(O)c1ccc2c(cnn2Cc2cc(Br)ccc2OCC2CCCC2)c1 [Example 14, 1-(5-Bromo-2-Cyclopentylmethoxy-Benzyl)-1H-Indazole-5-Carboxylic Acid] | 1500 nM | 600 nM
11 | CCc1nn(Cc2cc(Br)ccc2OCC(C)C)c2ccc(C(=O)O)cc12 [Example 64, 1-(5-Bromo-2-Isobutoxy-Benzyl)-3-Ethyl-1H-Indazole-5-Carboxylic Acid] | 2900 nM | 8 nM
12 | CCC(CC)COc1ccc(Br)cc1Cn1ccc2ccc(C(=O)O)cc21 [Example 70, 1-[5-Bromo-2-(2-Ethyl-Butoxy)-Benzyl]-1H-Indole-6-Carboxylic Acid] | ≥ 10000 nM | 320 nM
13 | CC(C)COc1ccc(Cl)cc1Cn1cc2c(C(=O)O)cccc2n1 [Example 37, 2-(5-Chloro-2-Isobutoxy-Benzyl)-2H-Indazole-4-Carboxylic Acid] | 3400 nM | 200 nM
14 | CC(C)COc1ccc(OC(F)F)cc1Cn1ncc2cc(C(=O)O)ccc21 [Example 56, 1-(5-Difluoromethoxy-2-Isobutoxy-Benzyl)-1H-Indazole-5-Carboxylic Acid] | 8800 nM | 5 nM
15 | CCC(CC)COc1ccc(Cl)cc1Cn1ncc2c(C(=O)O)cccc21 [Example 38, 1-[5-Chloro-2-(2-Ethyl-Butoxy)-Benzyl]-1H-Indazole-4-Carboxylic Acid] | 1700 nM | 3 nM
16 | CC(C)COc1cc(Cl)c(Cl)cc1Cn1ncc2cc(C(=O)O)ccc21 [Example 49, 1-(4,5-Dichloro-2-Isobutoxy-Benzyl)-1H-Indazole-5-Carboxylic Acid] | ≥ 10000 nM | 6 nM
17 | Cc1cn(Cc2cc(OC(F)(F)F)ccc2OCC(C)C)c2ccc(C(=O)O)cc12 [Example 75, 1-(2-Isobutoxy-5-Trifluoromethoxy-Benzyl)-3-Methyl-1H-Indole-5-Carboxylic Acid] | ≥ 10000 nM | 300 nM
18 | CCC(CC)COc1ccc(Cl)cc1Cn1ncc2cc(C(=O)O)ccc21 [Example 2, 1-[5-Chloro-2-(2-Ethyl-Butoxy)-Benzyl]-1H-Indazole-5-Carboxylic ACID] | 1100 nM | 110 nM
19 | Cc1nn(Cc2cc(Br)ccc2OCC(C)C)c2ccc(C(=O)O)cc12 [Example 21, 1-(5-Bromo-2-Isobutoxy-Benzyl)-3-Methyl-1H-Indazole-5-Carboxylic Acid] | 2200 nM | 13 nM
20 | O=C(O)c1ccc2c(cnn2Cc2cc(C(F)(F)F)ccc2OCC2CCCC2)c1 [Example 33, 1-(2-Cyclopentylmethoxy-5-Trifluoromethyl-Benzyl)-1H-Indazole-5-Carboxylic Acid] | 1400 nM | 1 nM
21 | CC(C)COc1ccc(Br)cc1Cn1ccc2cc(C(=O)O)ccc21 [Example 67, 1-(5-Bromo-2-Isobutoxy-Benzyl)-1H-Indole-5-Carboxylic Acid] | ≥ 10000 nM | 160 nM
22 | CCC(CC)COc1ccc(Cl)cc1Cn1nc(C)c2cc(C(=O)O)ccc21 [Example 23, 1-[5-Chloro-2-(2-Ethyl-Butoxy)-Benzyl]-3-Methyl-1H-Indazole-5-Carboxylic Acid] | 1200 nM | 1 nM
23 | CC(C)COc1ccc(Br)cc1Cn1ncc2ccc(C(=O)O)cc21 [Example 42, 1-(5-Bromo-2-Isobutoxy-Benzyl)-1H-Indazole-6-Carboxylic Acid] | 1900 nM | 20 nM
24 | CCC(CC)COc1ccc(Cl)cc1Cn1ccc2cc(C(=O)O)ccc21 [Example 1, 1-[5-Chloro-2-(2-Ethyl-Butoxy)-Benzyl]-1H-Indole-5-Carboxylic Acid] | 5200 nM | 150 nM
25 | O=C(O)c1ccc2c(cnn2Cc2cc(Br)ccc2OCc2ccc(Cl)cc2)c1 [Example 13, 1-[5-Bromo-2-(4-Chloro-Benzyloxy)-Benzyl]-1H-Indazole-5-Carboxylic Acid] | 8500 nM | 900 nM
